According to patent publication US10167262B2, “Herbicidal substituted 3-arylpyrazoles” (FMC CORPORATION, priority 2014, dated 2019):
Like-named read-outs stand apart in the source and are kept apart here.

Assays:
Format in all cases: in vivo
[1] = tested on: giant foxtail (Setaria faberii); experiment: Test C pre-/postemergence greenhouse test, plant response rating 0-100; details: Setaria faberi; for pest or weed control at 62 g/ha: 62 g ai/ha; for pest or weed control at 125 g/ha: 125 g ai/ha; for pest or weed control at 250 g/ha: 250 g ai/ha; for pest or weed control at 500 g/ha: 500 g ai/ha
How it was run: (§1)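 Plants were scored visually against controls 13–15 days after treatment on a 0–100 scale, 100 meaning complete control. Test chemicals, formulated in surfactant-containing non-phytotoxic solvent, went preemergence onto seeds in loam–sand blend or postemergence onto 1- to 4-leaf plants (2–18 cm) grown in peat-based mix.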

soybean (Glycine max) = experiment: as above; details: Glycine max; for plant injury at 62 g/ha: 62 g ai/ha; for plant injury at 125 g/ha: 125 g ai/ha; for plant injury at 250 g/ha: 250 g ai/ha; for plant injury at 500 g/ha: 500 g ai/ha
How it was run: as §1

[2] = tested on: Italian ryegrass (Lolium multiflorum); experiment: as above; details: Lolium multiflorum; for pest or weed control at 62 g/ha: 62 g ai/ha; for pest or weed control at 125 g/ha: 125 g ai/ha; for pest or weed control at 250 g/ha: 250 g ai/ha; for pest or weed control at 500 g/ha: 500 g ai/ha
How it was run: as §1

[3] = tested on: giant foxtail (Setaria faberii); experiment: Test A pre-/postemergence greenhouse herbicide test, visual injury rating 0-100; details: for pest or weed control at 500 g/ha: 500 g ai/ha
How it was run: (§2)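 Ratings are visual, 0 to 100 relative to untreated plants, taken approximately 10 days post-treatment in the greenhouse. Both preemergence soil and postemergence foliar routes were used with surfactant-containing non-phytotoxic solvent formulations.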

[4] = tested on: pigweed (Amaranthus retroflexus); experiment: as above; details: for pest or weed control at 500 g/ha: 500 g ai/ha
How it was run: as §2

[5] = tested on: velvetleaf (Abutilon theophrasti); experiment: as above; details: for pest or weed control at 500 g/ha: 500 g ai/ha
How it was run: as §2

[6] = tested on: morningglory (Ipomoea spp.); experiment: as above; details: for pest or weed control at 500 g/ha: 500 g ai/ha
How it was run: as §2

corn (Zea mays) = experiment: as above; details: for plant injury at 500 g/ha: 500 g ai/ha
How it was run: as §2

[7] = tested on: large (Lg) crabgrass (Digitaria sanguinalis); experiment: as above; details: for pest or weed control at 500 g/ha: 500 g ai/ha
How it was run: as §2

[8] = tested on: wheat (Triticum aestivum); experiment: as above; details: for plant injury at 500 g/ha: 500 g ai/ha
How it was run: as §2

[9] = tested on: barnyardgrass (Echinochloa crus-galli); experiment: as above; details: for pest or weed control at 500 g/ha: 500 g ai/ha
How it was run: as §2

[10] = tested on: chickweed (common chickweed, Stellaria media); experiment: Test C postemergence greenhouse test, plant response rating 0-100; details: Stellaria media, post-emergence
How it was run: (§3)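 Potted in peat/vermiculite mix; postemergence application at 1–4 leaves (2–18 cm); greenhouse 13–15 d; visual score 0–100 relative to untreated plants; dash = no test result.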

kochia (Kochia scoparia) = experiment: as above; details: Bassia scoparia, post-emergence
How it was run: as §3

wild oat (Avena fatua) = experiment: as above; details: Avena fatua, post-emergence
How it was run: as §3

[11] = post-emergence, Postemergence, read-out: Plant response rating (0 to 100), Foxtail, Giant
[12] = post-emergence, Postemergence, scale 0 to 100
[13] = pre-emergence, Preemergence, read-out: Plant response rating, Foxtail, Giant
[14] = post-emergence, Postemergence, read-out: Plant response rating (0 to 100), Soybean
[15] = pre-emergence, Preemergence, read-out: Plant response rating, Soybean
[16] = post-emergence, Postemergence, read-out: Plant response rating (0 to 100), Ryegrass, Italian
[17] = pre-emergence, Preemergence, read-out: Plant response rating, Ryegrass, Italian

COCC(=O)n1cc(C(=O)c2ccccc2)c(-c2cc(Cl)cc(Cl)c2)n1 [Compound 16, 1-[4-benzoyl-3-(3,5-dichlorophenyl)-1H-pyrazol-1-yl]-2-methoxyethanone]
60: Pigweed plant response rating (0 = no effect, 100 = complete control) ([4]; Preemergence, 125 g ai/ha)
0%: pest or weed control at 62 g/ha [1, 11] | pest or weed control at 125 g/ha [1, 11] | pest or weed control at 250 g/ha [1, 12] | pest or weed control at 62 g/ha [1, 13] | pest or weed control at 125 g/ha [1, 13] | pest or weed control at 250 g/ha ([1]; pre-emergence, Preemergence) | pest or weed control at 500 g/ha ([1]; pre-emergence, Preemergence) | plant injury at 62 g/ha (soybean (Glycine max); [14]) | plant injury at 125 g/ha (soybean (Glycine max); [14]) | plant injury at 250 g/ha (soybean (Glycine max); [12]) | plant injury at 500 g/ha (soybean (Glycine max); [12]) | plant injury at 62 g/ha (soybean (Glycine max); [15]) | plant injury at 125 g/ha (soybean (Glycine max); [15]) | plant injury at 250 g/ha (soybean (Glycine max); pre-emergence, Preemergence) | plant injury at 500 g/ha (soybean (Glycine max); pre-emergence, Preemergence) | pest or weed control at 62 g/ha [2, 16] | pest or weed control at 125 g/ha [2, 16] | pest or weed control at 250 g/ha [2, 12] | pest or weed control at 500 g/ha [2, 12] | pest or weed control at 62 g/ha [2, 17] | pest or weed control at 125 g/ha [2, 17] | pest or weed control at 250 g/ha ([2]; pre-emergence, Preemergence) | pest or weed control at 500 g/ha ([2]; pre-emergence, Preemergence) | pest or weed control at 125 g/ha ([3]; Setaria faberi, post-emergence, 240 h, Postemergence, 125 g ai/ha, read-out: Plant response rating (0 to 100 scale), Foxtail, Giant) | pest or weed control at 500 g/ha ([3]; Setaria faberi, post-emergence, 240 h, Postemergence, read-out: Plant response rating (0 to 100 scale), Foxtail, Giant) | pest or weed control at 500 g/ha ([3]; Setaria faberi, pre-emergence, 240 h, Preemergence, read-out: Plant response rating (0 to 100 scale), Foxtail, Giant) | pest or weed control at 125 g/ha ([6]; Ipomoea, post-emergence, 240 h, Postemergence, 125 g ai/ha, read-out: Plant response rating (0 to 100 scale), Morningglory) | pest or weed control at 500 g/ha ([6]; Ipomoea, post-emergence, 240 h, Postemergence, read-out: Plant response rating (0 to 100 scale), Morningglory) | pest or weed control at 500 g/ha ([6]; Ipomoea, pre-emergence, 240 h, Preemergence, read-out: Plant response rating (0 to 100 scale), Morningglory) | plant injury at 125 g/ha (corn (Zea mays); Zea mays, post-emergence, 240 h, Postemergence, 125 g ai/ha, read-out: Plant response rating (0 to 100 scale), Corn) | plant injury at 500 g/ha (corn (Zea mays); Zea mays, post-emergence, 240 h, Postemergence, read-out: Plant response rating (0 to 100 scale), Corn) | plant injury at 500 g/ha (corn (Zea mays); Zea mays, pre-emergence, 240 h, Preemergence, read-out: Plant response rating (0 to 100 scale), Corn) | pest or weed control at 125 g/ha ([7]; Digitaria sanguinalis, post-emergence, 240 h, Postemergence, 125 g ai/ha, read-out: Plant response rating (0 to 100 scale), Crabgrass, Large) | pest or weed control at 500 g/ha ([7]; Digitaria sanguinalis, post-emergence, 240 h, Postemergence, read-out: Plant response rating (0 to 100 scale), Crabgrass, Large) | pest or weed control at 500 g/ha ([7]; Digitaria sanguinalis, pre-emergence, 240 h, Preemergence, read-out: Plant response rating (0 to 100 scale), Crabgrass, Large) | plant injury at 125 g/ha ([8]; Triticum aestivum, post-emergence, 240 h, Postemergence, 125 g ai/ha, read-out: Plant response rating (0 to 100 scale), Wheat) | plant injury at 500 g/ha ([8]; Triticum aestivum, post-emergence, 240 h, Postemergence, read-out: Plant response rating (0 to 100 scale), Wheat) | plant injury at 500 g/ha ([8]; Triticum aestivum, pre-emergence, 240 h, Preemergence, read-out: Plant response rating (0 to 100 scale), Wheat) | pest or weed control at 125 g/ha ([9]; Echinochloa crus-galli, post-emergence, 240 h, Postemergence, 125 g ai/ha, read-out: Plant response rating (0 to 100 scale), Barnyardgrass) | pest or weed control at 500 g/ha ([9]; Echinochloa crus-galli, post-emergence, 240 h, Postemergence, read-out: Plant response rating (0 to 100 scale), Barnyardgrass) | pest or weed control at 500 g/ha ([9]; Echinochloa crus-galli, pre-emergence, 240 h, Preemergence, read-out: Plant response rating (0 to 100 scale), Barnyardgrass) | pest or weed control at 62 g/ha (wild oat (Avena fatua); 62 g ai/ha) | pest or weed control at 125 g/ha (wild oat (Avena fatua); 125 g ai/ha) | pest or weed control at 250 g/ha (wild oat (Avena fatua); 250 g ai/ha, scale 0 to 100) | pest or weed control at 500 g/ha (wild oat (Avena fatua); 500 g ai/ha, scale 0 to 100)
20: Velvetleaf plant response rating (0 = no effect, 100 = complete control) ([5]; Preemergence, 125 g ai/ha)
90%: pest or weed control at 500 g/ha ([5]; Abutilon theophrasti, post-emergence, 240 h, Postemergence, read-out: Plant response rating (0 to 100 scale), Velvetleaf) | pest or weed control at 250 g/ha (kochia (Kochia scoparia); 250 g ai/ha, scale 0 to 100) | pest or weed control at 500 g/ha (kochia (Kochia scoparia); 500 g ai/ha, scale 0 to 100)
0: Foxtail, Giant plant response rating (0 = no effect, 100 = complete control) ([3]; Preemergence, 125 g ai/ha) | Morningglory plant response rating (0 = no effect, 100 = complete control) ([6]; Preemergence, 125 g ai/ha) | Corn plant response rating (0 = no effect, 100 = complete control) (corn (Zea mays); Preemergence, 125 g ai/ha) | Crabgrass, Large plant response rating (0 = no effect, 100 = complete control) ([7]; Preemergence, 125 g ai/ha) | Wheat plant response rating (0 = no effect, 100 = complete control) ([8]; Preemergence, 125 g ai/ha) | Barnyardgrass plant response rating (0 = no effect, 100 = complete control) ([9]; Preemergence, 125 g ai/ha)
85%: pest or weed control at 125 g/ha (kochia (Kochia scoparia); 125 g ai/ha)
95%: pest or weed control at 62 g/ha ([10]; 62 g ai/ha)
10%: pest or weed control at 500 g/ha [1, 12]
80%: pest or weed control at 125 g/ha ([4]; Amaranthus retroflexus, post-emergence, 240 h, Postemergence, 125 g ai/ha, read-out: Plant response rating (0 to 100 scale), Pigweed) | pest or weed control at 125 g/ha ([5]; Abutilon theophrasti, post-emergence, 240 h, Postemergence, 125 g ai/ha, read-out: Plant response rating (0 to 100 scale), Velvetleaf) | pest or weed control at 500 g/ha ([5]; Abutilon theophrasti, pre-emergence, 240 h, Preemergence, read-out: Plant response rating (0 to 100 scale), Velvetleaf) | pest or weed control at 62 g/ha (kochia (Kochia scoparia); 62 g ai/ha)
100%: pest or weed control at 500 g/ha ([4]; Amaranthus retroflexus, post-emergence, 240 h, Postemergence, read-out: Plant response rating (0 to 100 scale), Pigweed) | pest or weed control at 500 g/ha ([4]; Amaranthus retroflexus, pre-emergence, 240 h, Preemergence, read-out: Plant response rating (0 to 100 scale), Pigweed) | pest or weed control at 125 g/ha ([10]; 125 g ai/ha) | pest or weed control at 250 g/ha ([10]; 250 g ai/ha, scale 0 to 100) | pest or weed control at 500 g/ha ([10]; 500 g ai/ha, scale 0 to 100)
